Reference: patent publication US9801888B2, “Pyrimidine compounds as mTOR and PI3K inhibitors” (DEVELOPMENT CENTER FOR BIOTECHNOLOGY, priority 2009, dated 2017)

These molecules were tested on PI3K (p110β/p85α) (assay: PI3K HTRF enzyme assay, p110β/p85α). Details: compound at 500 nM; 100 μM ATP.
Format: biochemical
Procedure: Recombinant PI3K (p110α/p85α) and PI3K (p110β/p85α) were from Millipore. […] Briefly, the compounds of interest dissolved in 100% DMSO were dispensed in all wells, following which the mixture of PIP2 and enzyme was added. PI3K (p110α/p85α) and PI3K (p110β/p85α) enzyme reactions were initiated in the presence of 10 μM and 100 μM ATP, respectively, and incubated for 30 min at room temperature. STOP solution prepared 2 hours prior to use was added to stop reactions, and mixed well. Detection solution prepared 2 hours prior to use was added, and incubated at room temperature for 17 hours in the dark. […] HTRF ration was calculated as follows: […]

Compound	% inhibition @ 500 nM p110β
CSc1c(OCCN(C)C)nc(-c2cccc(O)c2)nc1N1CCOCC1 [MTR-0043, 3-[4-(2-Dimethylamino-ethoxy)-5-methylsulfanyl-6-morpholin-4-yl-pyrimidin-2-yl]-phenol]	44.80%
CSc1c(Cl)nc(-c2ccc(N)nc2)nc1N1CCOCC1 [MTR-0133, 5-(4-Chloro-5-methylsulfanyl-6-morpholin-4-yl-pyrimidin-2-yl)-pyridin-2-ylamine]	4.50%
CSc1c(Cl)nc(-c2ccc(NC(=O)Nc3ccc(F)cc3)cc2)nc1N1CCOCC1 [MTR-0135, 1-[4-(4-Chloro-5-methylsulfanyl-6-morpholin-4-yl-pyrimidin-2-yl)-phenyl]-3-(4-fluoro-phenyl)-urea]	14.20%
CCOC(=O)c1nc(-c2ccc(NC(=O)Nc3cccc(F)c3)cc2)nc(N2CCOCC2)c1OCC [MTR-0147, 5-Ethoxy-2-{4-[3-(3-fluoro-phenyl)-ureido]-phenyl}-6-morpholin-4-yl-pyrimidine-4-carboxylic acid ethyl ester]	1.20%
COc1cnc(-c2ccc(NC(=O)Nc3cccc(F)c3)cc2)nc1N1CCOCC1 [MTR-0164, 1-(3-Fluoro-phenyl)-3-[4-(5-methoxy-4-morpholin-4-yl-pyrimidin-2-yl)-phenyl]-urea]	42.10%
CCOc1c(CN2CCN(S(C)(=O)=O)CC2)nc(-c2ccc(NC(=O)Nc3ccccc3)cc2)nc1N1CCOCC1 [MTR-0169, 1-{4-[5-Ethoxy-4-(4-methanesulfonyl-piperazin-1-ylmethyl)-6-morpholin-4-yl-pyrimidin-2-yl]-phenyl}-3-phenyl-urea]	3.20%
CSc1cnc(-c2ccc(NC(=O)Nc3ccc(F)cc3)cc2)nc1N1CCOCC1 [MTR-0178, 1-(4-Fluoro-phenyl)-3-[4-(5-methylsulfanyl-4-morpholin-4-yl-pyrimidin-2-yl)-phenyl]-urea]	8.20%
CCOc1cnc(-c2ccc(NC(=O)Nc3ccc(N4CCOCC4=O)cc3)cc2)nc1-c1ccncc1 [MTR-0398, 1-[4-(5-Ethoxy-4-pyridin-4-yl-pyrimidin-2-yl)-phenyl]-3-[4-(3-oxo-morpholin-4-yl)-phenyl]-urea]	21.80%

Each molecule was assayed against recombinant mTOR (Homo sapiens (Human), UniProt P42345) (assay: mTOR kinase assay (33P incorporation into 4EBP1)). Details: compound at 10 μM; 10 μM ATP; versus DMSO control.
Format: biochemical
Procedure: The activity of the compound against mTOR was examined by measuring the incorporation of ^33P from [γ-^33P]-ATP into 4EBP1. His-tagged, recombinant human 4EBP1 was expressed in E. coli, purified by nickel-nitrilotriacetic acid (Ni-NTA) resins, and stored at −80° C. Phosphorylation of 4EBP1 by mTOR was assayed in the presence or absence of the compound and performed in a final volume of 25 μl reaction buffer containing 300 ng 4EBP1, 50 ng recombinant mTOR (Invitrogen), 50 mM HEPES (pH 7.5), 1 mM EGTA, 0.01% Polysorbate 20, 10 mM MnCl2, 2.5 mM DTT, 10 μM ATP, and 0.5 μCi [γ-33P]-ATP (PerkinElmer) for 30 min at 30° C. The reactions were terminated by adding 3% phosphoric acid. The ^33P labeled 4EBP1 was transferred onto UniFilter-96 GF/B plate (PerkinElmer) and quantified by Top Count Microplate Scintillation Counter (PerkinElmer). For primary screening of kinase activity inhibition, each test compound was evaluated at […] in duplicate. […] The IC50 values of the compounds were determined after carrying out assays at eight serially diluted concentrations of each compound in duplicate. The results were analyzed using […] software (GraphPad Prism 5; GraphPad Software Inc.).
IC50 value is defined as the concentration of the test compound which achieves a half-maximal inhibition of the kinase activity.

Sequence of recombinant mTOR (P42345 1360-2549): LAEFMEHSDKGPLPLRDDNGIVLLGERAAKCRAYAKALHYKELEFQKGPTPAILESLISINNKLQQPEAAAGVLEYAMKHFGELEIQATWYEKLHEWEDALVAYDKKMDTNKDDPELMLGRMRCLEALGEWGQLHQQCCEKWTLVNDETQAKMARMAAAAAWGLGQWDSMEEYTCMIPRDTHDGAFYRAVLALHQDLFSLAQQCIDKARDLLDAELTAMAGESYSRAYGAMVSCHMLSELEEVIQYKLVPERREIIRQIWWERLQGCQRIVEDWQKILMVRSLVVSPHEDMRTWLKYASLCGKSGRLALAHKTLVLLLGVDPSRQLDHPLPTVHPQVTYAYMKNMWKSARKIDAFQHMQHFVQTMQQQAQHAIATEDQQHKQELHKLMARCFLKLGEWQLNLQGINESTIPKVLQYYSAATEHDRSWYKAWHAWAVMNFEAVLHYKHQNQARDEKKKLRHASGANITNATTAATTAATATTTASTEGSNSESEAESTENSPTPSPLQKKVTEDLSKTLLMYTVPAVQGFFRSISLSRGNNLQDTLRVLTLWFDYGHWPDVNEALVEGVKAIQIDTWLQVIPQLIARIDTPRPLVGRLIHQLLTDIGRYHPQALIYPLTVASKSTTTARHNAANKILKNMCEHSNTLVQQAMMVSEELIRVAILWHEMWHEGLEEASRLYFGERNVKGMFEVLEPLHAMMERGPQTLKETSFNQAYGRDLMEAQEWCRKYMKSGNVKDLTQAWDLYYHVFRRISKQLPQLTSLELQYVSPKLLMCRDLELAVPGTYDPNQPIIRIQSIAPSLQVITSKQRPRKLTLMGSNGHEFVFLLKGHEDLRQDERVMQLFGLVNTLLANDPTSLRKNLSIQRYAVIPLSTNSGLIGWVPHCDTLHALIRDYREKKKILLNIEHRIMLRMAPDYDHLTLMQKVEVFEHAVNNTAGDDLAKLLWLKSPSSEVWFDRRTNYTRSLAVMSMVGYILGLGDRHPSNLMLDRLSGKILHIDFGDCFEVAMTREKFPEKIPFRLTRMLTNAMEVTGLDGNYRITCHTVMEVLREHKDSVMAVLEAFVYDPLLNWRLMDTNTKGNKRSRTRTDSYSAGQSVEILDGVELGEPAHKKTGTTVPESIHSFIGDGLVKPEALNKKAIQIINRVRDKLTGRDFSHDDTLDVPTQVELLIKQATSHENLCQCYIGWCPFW

Compound	% Inhibition @ 10 μM
COc1c(-c2ccc(N)cc2)nc(-c2ccc(N)cc2)nc1N1CCOCC1 [MTR-0483]	88%
